Patent publication US9708336B2, “Metallo-beta-lactamase inhibitors” (priority 2014, dated 2017)
Read-outs that look alike come from different tables or passages of the source.

Experiments:
IMP-1 = IMP-1 (Serratia marcescens, UniProt P52699); test: biochemical; type: biochemical
NDM-1 = NDM-1 (Klebsiella pneumoniae, UniProt C7C422); test: biochemical; type: biochemical
[1] = system: Escherichia coli expressing NDM-1 (CLB30005); test: Antibiotic potentiation activity: synergistic concentration (MITC95) with imipenem, OD600 growth; type: cell-based; details: for Escherichia coli expressing NDM-1 (CLB 30005) MITC95: concentration giving 95% inhibition of bacterial growth
In short: (§1)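 Growth after 22–24 h at 35 °C is measured spectrophotometrically for bacteria incubated with compound plus imipenem (4 μg/ml in-well, or 1 μg/ml). Cells come from overnight agar colonies resuspended in saline and diluted 1:100 in 1.1× CAMHB.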

[2] = system: Serratia marcescens expressing IMP-1 (CL5741); test: as above; type: cell-based; details: for Serratia marcescens expressing IMP-1 (CL5741) MITC95: concentration giving 95% inhibition of bacterial growth
In short: as §1

[3] = system: Klebsiella pneumoniae expressing VIM-1 (IHMA599644); test: as above; type: cell-based; details: for Klebsiella pneumoniae expressing VIM-1 (IHMA 599644) MITC95: concentration giving 95% inhibition of bacterial growth
In short: as §1

VIM-1 = VIM-1 (Pseudomonas aeruginosa (strain ATCC 15692 / DSM 22644 / CIP 104116 / JCM 14847 / LMG 12228 / 1C / PRS 101 / PAO1), UniProt A0A0F7KYQ8); test: Enzyme activity: determination of IC50, fluorescence assay with CCF2-FA substrate (VIM-1); type: biochemical
[4] = fluorescence assay with CCF2-FA substrate, read-out: NDM-1 IC50
[5] = fluorescence assay with CCF2-FA substrate, read-out: VIM-1 IC50
[6] = fluorescence assay with CCF2-FA substrate, read-out: IMP-1 IC50
[7] = VIM-1 IC50, fluorescence assay with CCF2-FA substrate

Sequence of IMP-1 (P52699 whole entry, looked up): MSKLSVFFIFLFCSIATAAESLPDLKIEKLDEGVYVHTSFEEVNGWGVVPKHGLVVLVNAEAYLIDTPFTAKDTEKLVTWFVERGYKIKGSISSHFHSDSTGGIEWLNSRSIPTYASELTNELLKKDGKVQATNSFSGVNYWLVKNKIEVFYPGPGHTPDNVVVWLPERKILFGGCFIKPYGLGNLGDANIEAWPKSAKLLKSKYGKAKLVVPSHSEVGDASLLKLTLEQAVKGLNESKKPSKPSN
Sequence of NDM-1 (C7C422 whole entry, looked up, species assumed): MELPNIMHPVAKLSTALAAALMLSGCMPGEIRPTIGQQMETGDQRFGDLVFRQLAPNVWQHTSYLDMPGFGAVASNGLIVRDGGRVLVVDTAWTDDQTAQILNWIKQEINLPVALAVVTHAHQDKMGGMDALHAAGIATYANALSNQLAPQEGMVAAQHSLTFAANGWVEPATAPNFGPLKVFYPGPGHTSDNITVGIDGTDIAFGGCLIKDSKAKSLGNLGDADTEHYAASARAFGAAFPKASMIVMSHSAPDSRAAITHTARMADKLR

C[C@H]1NC(=O)O[C@H]1c1ccc(-c2ccnc(S(N)(=O)=O)c2-c2nnn[nH]2)cc1 (racemic) [Example 191, (±)-4-(4-(cis-4-Methyl-2-oxooxazolidin-5-yl)phenyl)-3-(1H-tetrazol-5-yl)pyridine-2-sulfonamide]
IC50 (IMP-1): 76 nM | IC50 (NDM-1; [4]): 7.75 nM | Escherichia coli expressing NDM-1 (CLB 30005) MITC95 [1]: 9.375 µM | Serratia marcescens expressing IMP-1 (CL5741) MITC95 [2]: 15.63 µM | Klebsiella pneumoniae expressing VIM-1 (IHMA 599644) MITC95 [3]: 75 µM | IC50 (VIM-1; [5]): 45.9 nM

NS(=O)(=O)c1cccc(-c2ccc(C(O)C(F)(F)F)cc2)c1-c1nn[nH]n1 (centres unmarked) [Example 3, 2(2H-tetrazol-5-yl)4′-(2,2,2-trifluoro-1-hydroxyethyl)biphenyl-3-sulfonamide]
IC50 (IMP-1; [6]): 8.92 nM | IC50 (NDM-1; [4]): 1.49 nM | Escherichia coli expressing NDM-1 (CLB 30005) MITC95 [1]: 0.7813 µM | Serratia marcescens expressing IMP-1 (CL5741) MITC95 [2]: 1.563 µM | Klebsiella pneumoniae expressing VIM-1 (IHMA 599644) MITC95 [3]: 200 µM | IC50 (VIM-1; [5]): 39.9 nM

CC(c1ccc(-c2cccc(S(N)(=O)=O)c2-c2nn[nH]n2)cc1)N1CCOCC1 (centres unmarked) [Example 4, 4′-(1-morpholin-4-ylethyl)-2-(2H-tetrazol-5-yl)biphenyl-3-sulfonamide]
IC50 (IMP-1; [6]): 11.3 nM | IC50 (NDM-1; [4]): 2.84 nM | Escherichia coli expressing NDM-1 (CLB 30005) MITC95 [1]: 0.7813 µM | Serratia marcescens expressing IMP-1 (CL5741) MITC95 [2]: 6.25 µM | Klebsiella pneumoniae expressing VIM-1 (IHMA 599644) MITC95 [3]: >200 µM | IC50 (VIM-1; [5]): 196 nM

NS(=O)(=O)c1cccc(-c2ccc(-n3nccn3)cc2)c1-c1nn[nH]n1 [Example 5, 2-(2H-tetrazol-5-yl)-4′-(2H-1,2,3-triazol-2-yl)biphenyl-3-sulfonamide]
IC50 (IMP-1; [6]): 72.3 nM | IC50 (NDM-1; [4]): 3.44 nM | Escherichia coli expressing NDM-1 (CLB 30005) MITC95 [1]: 0.7813 µM | Serratia marcescens expressing IMP-1 (CL5741) MITC95 [2]: 12.5 µM | Klebsiella pneumoniae expressing VIM-1 (IHMA 599644) MITC95 [3]: >200 µM | IC50 (VIM-1; [5]): 56.5 nM

CC(CO)Oc1ccc(-c2cccc(S(N)(=O)=O)c2-c2nn[nH]n2)cc1 (centres unmarked) [Example 6, 4′-(2-hydroxy-1-methylethoxy)-2-(2H-tetrazol-5-yl)biphenyl-3-sulfonamide]
IC50 (IMP-1): 39.6 nM | IC50 (NDM-1): 1.96 nM | Escherichia coli expressing NDM-1 (CLB 30005) MITC95 [1]: 1.563 µM | Serratia marcescens expressing IMP-1 (CL5741) MITC95 [2]: 50 µM | Klebsiella pneumoniae expressing VIM-1 (IHMA 599644) MITC95 [3]: >200 µM | IC50 (VIM-1; [5]): 42.3 nM

CC(C)(C)OC(=O)N1CCN(c2ccc(-c3cccc(S(N)(=O)=O)c3-c3nn[nH]n3)cc2)CC1 [Example 7, tert-butyl 4-[3′-sulfamoyl-2′-(2H-tetrazol-5-yl)biphenyl-4-yl]piperazine-1-carboxylate]
IC50 (IMP-1): 29.4 nM | IC50 (NDM-1; [4]): 3.69 nM | Escherichia coli expressing NDM-1 (CLB 30005) MITC95 [1]: 6.25 µM | Serratia marcescens expressing IMP-1 (CL5741) MITC95 [2]: 12.5 µM | Klebsiella pneumoniae expressing VIM-1 (IHMA 599644) MITC95 [3]: >200 µM | IC50 (VIM-1; [5]): 486 nM

COc1ccc(-c2cccc(S(N)(=O)=O)c2-c2nn[nH]n2)cc1 [Example 8, 4′-methoxy-2-(2H-tetrazol-5-yl)biphenyl-3-sulfonamide]
IC50 (IMP-1; [6]): 78.2 nM | IC50 (NDM-1; [4]): 3.99 nM | Escherichia coli expressing NDM-1 (CLB 30005) MITC95 [1]: 0.3906 µM | Serratia marcescens expressing IMP-1 (CL5741) MITC95 [2]: 3.125 µM | Klebsiella pneumoniae expressing VIM-1 (IHMA 599644) MITC95 [3]: 200 µM | IC50 (VIM-1; [7]): 79.8 nM

CCN(CC)C(=O)c1ccc(-c2cccc(S(N)(=O)=O)c2-c2nn[nH]n2)cc1 [Example 9, N,N-diethyl-3′-sulfamoyl-2′-(2H-tetrazol-5-yl)biphenyl-4-carboxamide]
IC50 (IMP-1; [6]): 17.2 nM | IC50 (NDM-1; [4]): 1.48 nM | Escherichia coli expressing NDM-1 (CLB 30005) MITC95 [1]: 3.125 µM | Serratia marcescens expressing IMP-1 (CL5741) MITC95 [2]: 12.5 µM | Klebsiella pneumoniae expressing VIM-1 (IHMA 599644) MITC95 [3]: >200 µM | IC50 (VIM-1; [5]): 277 nM

NS(=O)(=O)c1cccc(-c2ccc(C(=O)N3CCOCC3)cc2)c1-c1nn[nH]n1 [Example 10, 4′-(morpholin-4-ylcarbonyl)-2-(2H-tetrazol-5-yl)biphenyl-3-sulfonamide]
IC50 (IMP-1; [6]): 62.6 nM | IC50 (NDM-1; [4]): 3.7 nM | Escherichia coli expressing NDM-1 (CLB 30005) MITC95 [1]: 3.125 µM | Serratia marcescens expressing IMP-1 (CL5741) MITC95 [2]: 6.25 µM | Klebsiella pneumoniae expressing VIM-1 (IHMA 599644) MITC95 [3]: >200 µM | IC50 (VIM-1; [5]): 986 nM

NS(=O)(=O)c1cccc(-c2ccc(C(=O)NC3CC3)cc2)c1-c1nn[nH]n1 [Example 11, N-cyclopropyl-3′-sulfamoyl-2′-(2H-tetrazol-5-yl)biphenyl-4-carboxamide]
IC50 (IMP-1; [6]): 109 nM | IC50 (NDM-1; [4]): 6.42 nM | Escherichia coli expressing NDM-1 (CLB 30005) MITC95 [1]: 1.563 µM | Serratia marcescens expressing IMP-1 (CL5741) MITC95 [2]: 12.5 µM | Klebsiella pneumoniae expressing VIM-1 (IHMA 599644) MITC95 [3]: >200 µM | IC50 (VIM-1; [7]): 466 nM

NS(=O)(=O)c1cccc(-c2ccc(N3CCOCC3)cc2)c1-c1nn[nH]n1 [Example 12]
IC50 (IMP-1; [6]): 41.8 nM | IC50 (NDM-1; [4]): 3.47 nM | Escherichia coli expressing NDM-1 (CLB 30005) MITC95 [1]: 3.125 µM | Serratia marcescens expressing IMP-1 (CL5741) MITC95 [2]: 6.25 µM | Klebsiella pneumoniae expressing VIM-1 (IHMA 599644) MITC95 [3]: 200 µM | IC50 (VIM-1; [5]): 95.7 nM

CNC(=O)c1ccc(-c2cccc(S(N)(=O)=O)c2-c2nn[nH]n2)cc1 [Example 13, N-methyl-3′-sulfamoyl-2′-(2H-tetrazol-5-yl)biphenyl-4-carboxamide]
IC50 (IMP-1; [6]): 173 nM | IC50 (NDM-1; [4]): 5.47 nM | Escherichia coli expressing NDM-1 (CLB 30005) MITC95 [1]: 1.563 µM | Serratia marcescens expressing IMP-1 (CL5741) MITC95 [2]: 200 µM | Klebsiella pneumoniae expressing VIM-1 (IHMA 599644) MITC95 [3]: 200 µM | IC50 (VIM-1; [5]): 226 nM

NS(=O)(=O)c1cccc(-c2ccccc2)c1-c1nn[nH]n1 [Example 14, 2-(2H-tetrazol-5-yl)biphenyl-3-sulfonamide]
IC50 (IMP-1; [6]): 172 nM | IC50 (NDM-1; [4]): 5.19 nM | Escherichia coli expressing NDM-1 (CLB 30005) MITC95 [1]: 0.3906 µM | Serratia marcescens expressing IMP-1 (CL5741) MITC95 [2]: 6.25 µM | Klebsiella pneumoniae expressing VIM-1 (IHMA 599644) MITC95 [3]: 100 µM | IC50 (VIM-1; [5]): 108 nM

NC(=O)c1ccc(-c2cccc(S(N)(=O)=O)c2-c2nn[nH]n2)cc1 [Example 15, 3′-sulfamoyl-2′-(2H-tetrazol-5-yl)biphenyl-4-carboxamide]
IC50 (IMP-1; [6]): 134 nM | IC50 (NDM-1; [4]): 5.96 nM | Escherichia coli expressing NDM-1 (CLB 30005) MITC95 [1]: 0.3906 µM | Serratia marcescens expressing IMP-1 (CL5741) MITC95 [2]: 15.63 µM | Klebsiella pneumoniae expressing VIM-1 (IHMA 599644) MITC95 [3]: 18.75 µM | IC50 (VIM-1; [5]): 62.3 nM

CS(=O)(=O)c1ccc(-c2cccc(S(N)(=O)=O)c2-c2nn[nH]n2)cc1 [Example 16, 4′-(methylsulfonyl)-2-(2H-tetrazol-5-yl)biphenyl-3-sulfonamide]
IC50 (IMP-1; [6]): 85.5 nM | IC50 (NDM-1; [4]): 10.5 nM | Escherichia coli expressing NDM-1 (CLB 30005) MITC95 [1]: 1.172 µM | Serratia marcescens expressing IMP-1 (CL5741) MITC95 [2]: 25 µM | Klebsiella pneumoniae expressing VIM-1 (IHMA 599644) MITC95 [3]: 75 µM | IC50 (VIM-1; [7]): 67.1 nM

NS(=O)(=O)c1cccc(-c2ccccn2)c1-c1nn[nH]n1 [Example 93, 3-pyridin-2-yl-2-(2H-tetrazol-5-yl)benzenesulfonamide]
IC50 (IMP-1; [6]): 331 nM | IC50 (NDM-1; [4]): 3.17 nM | Escherichia coli expressing NDM-1 (CLB 30005) MITC95 [1]: 0.7813 µM | Klebsiella pneumoniae expressing VIM-1 (IHMA 599644) MITC95 [3]: 25 µM | IC50 (VIM-1; [5]): 89.8 nM

NS(=O)(=O)c1cncc(-c2ccc(CO)cc2)c1-c1nnn[nH]1 [Example 189, 5-(4-(Hydroxymethyl)phenyl)-4-(1H-tetrazol-5-yl)pyridine-3-sulfonamide]
IC50 (IMP-1; [6]): 704 nM | IC50 (NDM-1; [4]): 23.2 nM | Escherichia coli expressing NDM-1 (CLB 30005) MITC95 [1]: 1.563 µM | Klebsiella pneumoniae expressing VIM-1 (IHMA 599644) MITC95 [3]: 100 µM | IC50 (VIM-1; [7]): 685 nM

NS(=O)(=O)c1ccc(O)cc1-c1nn[nH]n1 [Example 254]
Escherichia coli MITC95 ([1]; Escherichia coli expressing NDM-1 (CLB30005), 95% growth inhibition): 3.125 µM | Serratia marcescens MITC95 ([2]; Serratia marcescens expressing IMP-1 (CL5741), 95% growth inhibition): >200 µM | Klebsiella pneumoniae MITC95 ([3]; Klebsiella pneumoniae expressing VIM-1 (IHMA599644), 95% growth inhibition): >200 µM | IC50 (VIM-1; VIM-1 enzyme, CCF2-FA fluorescence assay, read-out: VIM-1 IC50): 20000 nM
